Reference: article PMC8776092, “A Toxoplasma gondii Oxopurine Transporter Binds Nucleobases and Nucleosides Using Different Binding Modes” (International Journal of Molecular Sciences, 2022)
Where “and” joins values, the source holds several entries; their conditions need not be identical. Equal values may be shown once. Read-outs that look alike come from different tables or passages of the source.

How the values were obtained:
T. gondii = settings: cited from earlier work
Tg244440 [1] = biological target: T1, Tg244440 (Toxoplasma gondii, UniProt A0A125YNC9); test: [3H]-guanine uptake and its inhibition in T. brucei TbNB-KO procyclics expressing Tg244440 (clone F5); format: cell-based; settings: for Ki: competition with 50 nM [3H]-guanine, Cheng-Prusoff; for Ki / Inhibition of [3H]-guanine transport by pyrimidines: 30 s; for ΔG^0 (Gibbs free energy of interaction): calculated from Km or Ki, ΔG0 = −RTln(Ki); for Summation of the Gibbs free energy of the proposed interactions (binding model), Σ: substrate binding model, Figure 5, for adenosine base group only; for Rate of [3H]-guanine uptake, +Tg244440: clone F5; for Sum of δ(ΔG^0) for the 7-deaza and 9-deaza analogues: analogues of the named nucleobase; for Inhibition of [3H]-guanine transport by pyrimidines: inhibitor at 1 mM, 0.1 μM [3H]-guanine
T1 sequence (A0A125YNC9 1-462): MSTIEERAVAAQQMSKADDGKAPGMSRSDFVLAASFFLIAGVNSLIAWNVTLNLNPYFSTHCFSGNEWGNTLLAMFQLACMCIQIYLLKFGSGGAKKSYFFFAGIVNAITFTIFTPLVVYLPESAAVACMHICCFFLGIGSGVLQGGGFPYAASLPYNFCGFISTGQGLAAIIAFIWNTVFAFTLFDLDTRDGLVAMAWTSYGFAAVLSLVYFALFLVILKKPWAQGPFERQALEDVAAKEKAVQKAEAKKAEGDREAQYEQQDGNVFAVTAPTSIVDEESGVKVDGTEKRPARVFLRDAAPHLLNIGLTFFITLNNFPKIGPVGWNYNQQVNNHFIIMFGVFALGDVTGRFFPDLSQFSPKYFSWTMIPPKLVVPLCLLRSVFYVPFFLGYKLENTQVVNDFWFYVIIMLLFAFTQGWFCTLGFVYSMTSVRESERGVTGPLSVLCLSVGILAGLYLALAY
Experimental: (§1) Briefly, PCF cells of T. brucei in logarithmic growth were harvested by centrifugation at 1000× g for 10 min, washed twice in AB and then resuspended in fresh buffer at a final density of 10^8 cells/mL. […] Immediately after finishing the assay, all tubes were flash-frozen in liquid nitrogen and the cell pellets were cut into scintillation vials and lysed with a solution of 2% SDS for one hour under agitation. Then, 3 mL of scintillation fluid (Scintilogic U, Lablogic) was added to each vial and left agitating overnight on a rocking platform. The next morning, the vials were vigorously shaken to ensure optimal mixing and the scintillation was measured in a 300SL (Hidex) scintillation counter. All assays were carried out in triplicate. All experimental data such as Km, Ki and Vmax values are the average and SEM of at least three separate experiments, each in triplicate, unless otherwise indicated.
(§2) Background scintillation was measured in vials containing no cells or radiolabeled substrate, and counts associated with extracellular radiolabel were calculated from samples where cells were briefly incubated with the same concentration of radiolabel, but in the presence of saturating concentrations of non-radiolabeled substrate before centrifugation through oil. The average of the three control replicates was subtracted from each data point.

TgAT2 = biological target: TgAT2; set-up: method as in PMID 12865082; settings: cited from earlier work; for Km: tachyzoites
Tg244440 [2] = biological target: T1, Tg244440; settings: Xenopus laevis oocytes, 10 µM [3H]-adenosine; cited from earlier work
TgAT1 = settings: cited from earlier work
[3] = system: human adenosine deaminase; set-up: method as in PMID 23592612, PMID 6363411, PMID 10722669, PMID 8982282; settings: cited from earlier work
hENT1 = system: hENT1; set-up: method as in PMID 23592612, PMID 6363411, PMID 10722669, PMID 8982282; settings: cited from earlier work
Tg244440 [4] = format: cell-based, Toxoplasma gondii; settings: 0.1 μM [3H]-permeant, 60 s, clones B11, F5 and G10
Experimental: (§3) Figure 2 Uptake of radiolabelled nucleosides and nucleobases by in three clonal lines of T. brucei NB-KO procyclics, expressing Tg244440 in pHD1336. EV, empty vector control. Radiolabel concentration was 0.1 µM and uptake was measured over 60 s, in triplicate (average and SEM shown). Statistically significant differences between the control and the Tg244440-expressing cells were established using Student’s unpaired t-test. *, p < 0.05, **, p < 0.01, ***, p < 0.001.
as §1

human adenosine kinase = system: human adenosine kinase; set-up: method as in PMID 23592612, PMID 6363411, PMID 10722669, PMID 8982282; settings: cited from earlier work
Tg244440 [5] = biological target: T1, Tg244440; format: cell-based; settings: 0.1 μM [3H]-permeant, 60 s, clones B11, F5 and G10
Experimental: as §3, §1

[6] = system: TbNBT-KO cells transfected with the empty vector (EV); test: [3H]-guanine and [3H]-hypoxanthine uptake in TbNBT-KO cells transfected with the empty vector (EV); format: cell-based, Trypanosoma brucei; settings: for Rate of [3H]-guanine uptake, EV / Rate of [3H]-hypoxanthine uptake, EV: empty vector cells
Experimental: as §1, §2

TgNBT1 = settings: tachyzoites; cited from earlier work
Tg244440 [7] = biological target: T1, Tg244440; settings: clone F5
Experimental: as §1, §2

inosine transporter = settings: tachyzoites; read-out: apparent Km; cited from earlier work
O=c1[nH]cnc2nc[nH]c12 = test: cells, lysate or membranes; settings: other: 0.10 µM [3H]-hypoxanthine, 30 s, Michaelis-Menten; pH 7.3
[8] = substrate: Nc1nc2nc[nH]c2c(=O)[nH]1; test: [3H]-guanine uptake and its inhibition in T. brucei TbNB-KO procyclics expressing Tg244440 (clone F5); format: cell-based, Toxoplasma gondii; settings: other: 0.05 µM [3H]-guanine, 30 s, Michaelis-Menten; pH 7.3
[9] = [Permeant] 25 μM (unlabelled guanine to saturate the transporter)
[10] = [Permeant] 0.1 μM, over 60 s, listed as hypoxanthine
[11] = [Permeant] 1000 μM (unlabelled hypoxanthine to saturate the transporter)

OC[C@@H]1CC[C@H](n2cnc3c(O)ncnc32)O1 [2′,3′-dideoxyinosine]
Activity against T. gondii (in words) (T. gondii): active in vitro and in vivo | Ki (Tg244440 [1]; Ki): 698 ± 52 µM | ΔG^0 (Gibbs free energy of interaction) (Tg244440 [1]): -4.3 kcal/mol | δ(ΔG^0) relative to Inosine (Tg244440 [1]; relative to Inosine): 3.06 kcal/mol

Nc1ncnc2c1ncn2[C@@H]1O[C@H](CO)[C@@H](O)[C@@H]1O [Adenine arabinoside (Ara-A), Adenine arabinoside]
Ki (TgAT2): 2.9 µM | Activity against T. gondii (in words) (T. gondii): moderately active | Affinity for Tg244440 (in words) (Tg244440 [1]): low affinity | ΔG^0 (Gibbs free energy of interaction) (Tg244440 [1]): -4.78 kcal/mol | Ki (Tg244440 [1]; read-out: Ki): 310 ± 14 µM | δ(ΔG^0) relative to Adenosine (Tg244440 [1]): 0.896 kcal/mol

Nc1ncnc2c1ncn2[C@@H]1O[C@H](CO)[C@@H](O)[C@H]1O [Adenosine]
Km (Tg244440 [2]): 114 ± 37 µM | Km (TgAT2): 0.49 µM | Km (TgAT1; adenosine transport): 120 µM | Km (TgAT1; for its substrates): > 100 µM | Km [3]: 49 µM | Affinity for Tg244440 (in words) (Tg244440 [1]): Low affinity | Ki (Tg244440 [1]; Ki): 68.2 ± 2.86 µM | ΔG^0 (Gibbs free energy of interaction) (Tg244440 [1]): -5.69 kcal/mol | Fold higher affinity than adenine (Tg244440 [1]; ratio of Ki values): 6 fold | Fold lower affinity than inosine and guanosine (Tg244440 [1]; ratio of Ki values): about 20 fold | δ(ΔG^0) relative to Adenine (Tg244440 [1]): -1.08 kcal/mol | δ(ΔG^0) relative to Adenine (Tg244440 [1]; listed as adenosine): 1.08 kcal/mol | Summation of the Gibbs free energy of the proposed interactions (binding model), Σ (Tg244440 [1]): -4.97 kcal/mol | Km (hENT1): 40 to 60 µM | Uptake of radiolabelled permeant in Tg244440 clones compared to empty vector (Tg244440 [4]): No difference | Km (human adenosine kinase): 0.2 to 0.4 µM

Nc1nc2nc[nH]c2c(=O)[nH]1 [Guanine]
Rate of [3H]-guanine uptake, +Tg244440 (Tg244440 [1]; [Permeant] 0.05 μM, over 60 s): 0.037 ± 0.003 pmol(10^7 Cells)^−1s^−1 | Rate of [3H]-guanine uptake, +Tg244440 (Tg244440 [1]; [Permeant] 0.05 μM, over 60 s, listed as guanine): 0.037 pmol(10^7 Cells)^−1s^−1 | Rate of [3H]-guanine uptake, +Tg244440 (Tg244440 [1]; [9]): 0.00092 ± 0.00067 pmol(10^7 Cells)^−1s^−1 | Sum of δ(ΔG^0) for the 7-deaza and 9-deaza analogues (Tg244440 [1]): 14.2 kJ/mol | ΔG^0 (Gibbs free energy of interaction) (Tg244440 [1]): -8.05 kcal/mol | Uptake of radiolabelled permeant in Tg244440 clones compared to empty vector (Tg244440 [5]): highly significant increases | Rate of [3H]-guanine uptake, EV ([6]; [Permeant] 0.05 μM, over 60 s): 0.00059 pmol(10^7 Cells)^−1s^−1 | Rate of [3H]-guanine uptake, EV [6, 9]: 0.0015 ± 0.0002 pmol(10^7 Cells)^−1s^−1

O=c1[nH]cnc2nc[nH]c12 [Hypoxanthine]
Km (TgNBT1): 0.91 µM | Rate of [3H]-hypoxanthine uptake, +Tg244440 (Tg244440 [7]; [Permeant] 0.1 μM, over 60 s): 0.048 ± 0.0004 pmol(10^7 Cells)^−1s^−1 | Rate of [3H]-hypoxanthine uptake, +Tg244440 (Tg244440 [7]; [10]): 0.048 pmol(10^7 Cells)^−1s^−1 | Rate of [3H]-hypoxanthine uptake, +Tg244440 (Tg244440 [7]; [11]): −0.01 ± 0.01 pmol(10^7 Cells)^−1s^−1 | Ki (Tg244440 [1]; Ki): 2.26 ± 0.36 µM | Sum of δ(ΔG^0) for the 7-deaza and 9-deaza analogues (Tg244440 [1]): 15.8 kJ/mol | ΔG^0 (Gibbs free energy of interaction) (Tg244440 [1]): -7.7 kcal/mol | δ(ΔG^0) relative to Guanine (Tg244440 [1]): 0.359 kcal/mol | Summation of the Gibbs free energy of the proposed interactions (binding model), Σ (Tg244440 [1]): -8.01 kcal/mol | Uptake of radiolabelled permeant in Tg244440 clones compared to empty vector (Tg244440 [5]): highly significant increases | Slope of uptake in EV control lower than in +Tg244440 clone F5 ([6]; 0.10 µM [3H]-hypoxanthine over 60 s): 86.2% | Rate of [3H]-hypoxanthine uptake, EV ([6]; [Permeant] 0.1 μM, over 60 s): 0.0066 ± 0.0007 pmol(10^7 Cells)^−1s^−1 | Rate of [3H]-hypoxanthine uptake, EV [6, 10]: 0.0066 pmol(10^7 Cells)^−1s^−1 | Rate of [3H]-hypoxanthine uptake, EV [6, 11]: 0.00055 pmol(10^7 Cells)^−1s^−1

O=c1[nH]cnc2c1ncn2[C@@H]1O[C@H](CO)[C@@H](O)[C@H]1O [Inosine]
Km (TgAT2): 0.77 µM | Km (TgAT1; for its substrates): > 100 µM | Km (inosine transporter): 81 µM | Ki (Tg244440 [1]; Ki): 4.05 ± 1.37 µM | ΔG^0 (Gibbs free energy of interaction) (Tg244440 [1]): -7.36 kcal/mol | δ(ΔG^0) relative to Hypoxanthine (Tg244440 [1]): 0.335 kcal/mol

O=[N+]([O-])c1ccc(CSc2ncnc3c2ncn3[C@@H]2O[C@H](CO)[C@@H](O)[C@H]2O)cc1 [S-(4-nitrobenzyl)-6-thioinosine (NBMPR), S-(4-nitrobenzyl)-6-thioinosine]
Ki (Tg244440 [1]; Ki): 78 ± 6 µM | ΔG^0 (Gibbs free energy of interaction) (Tg244440 [1]): -5.59 kcal/mol | δ(ΔG^0) relative to Adenosine (Tg244440 [1]): 0.0837 kcal/mol

O=c1[nH]c(=O)c2nc[nH]c2[nH]1 [Xanthine]
Ki (Tg244440 [1]; Ki): 42.4 ± 4.2 µM | ΔG^0 (Gibbs free energy of interaction) (Tg244440 [1]): -5.95 kcal/mol | δ(ΔG^0) relative to Guanine (Tg244440 [1]): 2.08 kcal/mol | δ(ΔG^0) relative to Hypoxanthine (Tg244440 [1]): 1.74 kcal/mol

Cc1cn([C@H]2C[C@H](O)[C@@H](CO)O2)c(=O)[nH]c1=O [thymidine]
Uptake of radiolabelled permeant in Tg244440 clones compared to empty vector (Tg244440 [5]): only slightly increased

Cc1c[nH]c(=O)[nH]c1=O [thymine]
Inhibition of [3H]-guanine transport by pyrimidines (Tg244440 [1]): significant inhibition

O=c1ccn([C@@H]2O[C@H](CO)[C@@H](O)[C@H]2O)c(=O)[nH]1 [uridine]
Inhibition of [3H]-guanine transport by pyrimidines (Tg244440 [1]): significant inhibition

Tg244440 (Toxoplasma gondii ME49)
Km (O=c1[nH]cnc2nc[nH]c12): 1 µM and 0.79 ± 0.06 µM

B1: Tg244440 (Toxoplasma gondii ME49) (protein)
chain: MSTIEERAVAAQQMSKADDGKAPGMSRSDFVLAASFFLIAGVNSLIAWNVTLNLNPYFSTHCFSGNEWGNTLLAMFQLACMCIQIYLLKFGSGGAKKSYFFFAGIVNAITFTIFTPLVVYLPESAAVACMHICCFFLGIGSGVLQGGGFPYAASLPYNFCGFISTGQGLAAIIAFIWNTVFAFTLFDLDTRDGLVAMAWTSYGFAAVLSLVYFALFLVILKKPWAQGPFERQALEDVAAKEKAVQKAEAKKAEGDREAQYEQQDGNVFAVTAPTSIVDEESGVKVDGTEKRPARVFLRDAAPHLLNIGLTFFITLNNFPKIGPVGWNYNQQVNNHFIIMFGVFALGDVTGRFFPDLSQFSPKYFSWTMIPPKLVVPLCLLRSVFYVPFFLGYKLENTQVVNDFWFYVIIMLLFAFTQGWFCTLGFVYSMTSVRESERGVTGPLSVLCLSVGILAGLYLALAY
Km [8]: 1 µM
